Experimental data taken from patent US11241013B2, “Benzimidazole compounds as agricultural chemicals” (REDAG CROP PROTECTION LTD, priority 2017, dated 2022).

Key:
Assay type in all cases: cell-based
Phytophthora cinnamomi = experiment: Amended agar assay; design: key to % control Phytophthora cinnamomi 20 ppm: D: no control detected at this concentration; C: up to 50% control; B: from 50 to 99% control; A: a control of greater than 99%, i.e. no detectable colony growth; settings: for % control Phytophthora cinnamomi 20 ppm: amended PDA agar, % reduction in colony growth vs control plate, 18° C.; for EC50 Phytophthora spp. (marked *: Phytophthora cinnamomi): values marked *: amended agar assay, descending concentrations with 5-fold dilutions
Protocol: (§1) Testing was carried out on potato dextrose agar (PDA) amended with each compound at a test concentration of typically 20 ppm or 2 ppm. Amended agar was poured into three replicate 9 cm petri dishes. Each replicate dish was inoculated in the centre with a 5 mm agar plug taken from the leading edge of a culture aged between 2 and 7 days old; the age of the culture was dependant on the growth rate of the pathogen being tested. The test pathogens were Pythium ultimum and Phytophthora cinnamomi. Plates were incubated at 18° C. and the diameter of each colony measured before growth on the fastest growing plate reached the plate edge. This varied between 2 and 7 days depending on the growth rate of test pathogens. The % reduction in colony growth compared to the control plate was calculated for each pathogen. The results are provided in Table 1, in which D represents no control detected at this concentration; C represents up to 50% control; B from 50 to 99% control; and A represents a control of greater than 99%, i.e. no detectable colony growth.
(§2) Alternatively, or in addition, the same assay was conducted at descending test concentrations with 5-fold dilutions typically down to 0.032 ppm though sometimes as low as 0.00026 ppm, and an EC50 (the concentration at which 50% control would be achieved) was determined. The results are provided in Table 1 in which G represents no control detected at 20 ppm, F represents an EC50 of ≥20 ppm and E represents an EC50 of less than 20 ppm.

Pythium ultimum = experiment: Amended agar assay; design: key to % control Pythium ultimum 2 ppm / % control Pythium ultimum 20 ppm: D: no control detected at this concentration; C: up to 50% control; B: from 50 to 99% control; A: a control of greater than 99%, i.e. no detectable colony growth; settings: for inhibition of growth at 20 ppm / inhibition of growth at 2 ppm: Globisporangium ultimum; for inhibition of growth at 20 ppm / % control Pythium ultimum 20 ppm / % control Pythium ultimum 2 ppm / inhibition of growth at 2 ppm: amended PDA agar, % reduction in colony growth vs control plate, 18° C.; for EC50 Pythium ultimum: amended agar assay, descending concentrations with 5-fold dilutions
Protocol: as §1, §2

Phytophthora cactorum [1] = experiment: 96 well plate test; design: key: G: no control detected at 20 ppm; F: an EC50 of ≥20 ppm; an EC50 of less than 20 ppm; settings: 96 well plate assay, agar amended to 20, 2, 0.2 and 0.02 ppm, assessed after 2 to 3 days
Protocol: (§3) Compounds were screened in 96 well plates with 10 compounds per plate. Each compound was screened using agar amended to 20, 2, 0.2 and 0.02 ppm, with proline at 50 and 10 ppm and 0.2% DMSO used as controls. Each test concentration and standard was replicated twice on a plate. Compounds were screened against Phytophthora cactorum. The agar used in the test is a 1% potato dextrose agar. 1000 spores/mL agar were added to the appropriate agar. A ×10 stock solution in 2% DMSO was produced for each dose i.e. 200, 20, 2 and 0.2 ppm, and 10 μl of this added to the appropriate wells on the plate. An equivalent amount of 2% DMSO and proline stock at 500 and 100 ppm were added for the controls. To each well 90 μl of the appropriate agar spore suspension was added to give the required final well concentrations. Plates were incubated at room temperature (18° C.) and assessed after 2 to 3 days. The amount of pathogen growth in each well was compared to the DMSO controls and an EC50 concentration was calculated. The results are provided in Table 1 in which H represents no control detected at 20 ppm, G represents no control detected at 2 ppm (where the highest test concentration in the assay was 2 ppm), F represents an EC50 of ≥20 ppm, E represents an EC50 of less than 20 ppm.

Phytophthora cactorum [2] = experiment: 96 well plate test; design: key: H: no control detected at 20 ppm; G: no control detected at 2 ppm (where the highest test concentration in the assay was 2 ppm); F: an EC50 of ≥20 ppm; an EC50 of less than 20 ppm; settings: 96 well plate assay, agar amended to 20, 2, 0.2 and 0.02 ppm, assessed after 2 to 3 days
Protocol: as §3

SMILES | EC50 Phytophthora spp. (Phytophthora cactorum) (Phytophthora cactorum [1]) | % control Pythium ultimum 2 ppm (Pythium ultimum) | inhibition of growth at 2 ppm (Pythium ultimum) | also measured
Cn1nnnc1-n1c(OCc2cccc(N)n2)nc2ccccc21 [Example 1, 6-(((1-(1-Methyl-1H-tetrazol-5-yl)-1H-benzo[d]imidazol-2-yl)oxy)methyl)pyridin-2-amine] | – | – | – | % control Phytophthora cinnamomi 20 ppm (Phytophthora cinnamomi): B (from 50 to 99% control); inhibition of growth at 20 ppm (Pythium ultimum): > 99%
Cn1nnnc1-n1c(OCc2ncccn2)nc2ccccc21 [Example 2] | H | – | – | % control Pythium ultimum 20 ppm (Pythium ultimum): D
Cn1nnnc1-n1c(OCc2cnccn2)nc2ccccc21 [Example 5] | H | D | – | inhibition of growth at 20 ppm (Pythium ultimum): < 50%
Nc1cccc(COc2nc3ccccc3n2-c2ncncc2Cl)n1 [Example 9] | H | – | < 50% | –
COCCCOc1ccnc(COc2nc3ccccc3n2-c2nnnn2C)c1C [Example 15] | H | – | < 50% | inhibition of growth at 20 ppm (Pythium ultimum): > 99%
Cn1nnnc1-n1c(OCc2cccnc2)nc2ccccc21 [Example 18] | H | – | < 50% | –
Cn1nnnc1-n1c(OCc2ccncc2)nc2ccccc21 [Example 19] | H | – | < 50% | –
Cn1nnnc1-n1c(OCc2ccccn2)nc2ccc(F)cc21 [Example 20] | – | – | – | EC50 Phytophthora spp. (marked *: Phytophthora cinnamomi) (Phytophthora cinnamomi): E* (an EC50 of less than 20 ppm); EC50 Pythium ultimum (Pythium ultimum): E (an EC50 of less than 20 ppm)
Cn1nnnc1-n1c(OCc2cccnn2)nc2ccccc21 [Example 21] | H | D | – | inhibition of growth at 20 ppm (Pythium ultimum): 50 to 99%
Cn1nnnc1-n1c(OCCc2ccccn2)nc2ccccc21 [Example 25] | H | – | < 50% | –
Cc1cccnc1-n1c(OCc2ccccn2)nc2ccccc21 [Example 26] | – | – | – | % control Phytophthora cinnamomi 20 ppm (Phytophthora cinnamomi): D; % control Pythium ultimum 20 ppm (Pythium ultimum): D
c1ccc(COc2nc3ccccc3n2-c2ccccn2)nc1 [Example 27] | – | – | – | % control Phytophthora cinnamomi 20 ppm (Phytophthora cinnamomi): D; inhibition of growth at 20 ppm (Pythium ultimum): < 50%
Cn1nnnc1-n1c(OCc2cccc(N)n2)nc2ccc(Br)cc21 [Example 28] | – | – | – | EC50 Phytophthora spp. (marked *: Phytophthora cinnamomi) (Phytophthora cinnamomi): E* (an EC50 of less than 20 ppm); EC50 Pythium ultimum (Pythium ultimum): E (an EC50 of less than 20 ppm)
Cn1nnnc1-n1c(OCc2ccccn2)nc2ccccc21 [Example 29] | – | – | – | % control Phytophthora cinnamomi 20 ppm (Phytophthora cinnamomi): A (a control of greater than 99%, i.e. no detectable colony growth); EC50 Phytophthora spp. (marked *: Phytophthora cinnamomi) (Phytophthora cinnamomi): E* (an EC50 of less than 20 ppm); inhibition of growth at 20 ppm (Pythium ultimum): > 99%; EC50 Pythium ultimum (Pythium ultimum): E (an EC50 of less than 20 ppm)
Cn1nnnc1-n1c(OCc2cccc(NS(C)(=O)=O)n2)nc2ccccc21 [Example 31, N-(6-(((1-(1-Methyl-1H-tetrazol-5-yl)-1H-benzo[d]imidazol-2-yl)oxy)methyl)pyridin-2-yl)methanesulfonamide] | – | – | – | % control Phytophthora cinnamomi 20 ppm (Phytophthora cinnamomi): B (from 50 to 99% control); % control Pythium ultimum 20 ppm (Pythium ultimum): D
Cn1nnnc1-n1c(OCc2cccc(-c3ccccc3)n2)nc2ccccc21 [Example 32, 1-(1-Methyl-1H-tetrazol-5-yl)-2-((6-phenylpyridin-2-yl)methoxy)-1H-benzo[d]imidazole] | H | – | < 50% | –
Clc1cncnc1-c1c(OCc2ccccn2)[nH]c2ccccc12 [Example 33, 3-(5-Chloropyrimidin-4-yl)-2-(pyridin-2-ylmethoxy)-1H-indole] | – | – | – | % control Phytophthora cinnamomi 20 ppm (Phytophthora cinnamomi): B (from 50 to 99% control); inhibition of growth at 20 ppm (Pythium ultimum): < 50%
Cn1nnnc1-n1c(COc2ccccn2)nc2ccccc21 [Example 34, 1-(1-Methyl-1H-tetrazol-5-yl)-2-((pyridin-2-yloxy)methyl)-1H-benzo[d]imidazole] | H | D | – | –
Cn1nnnc1-n1c(OCc2cccc(NCc3cccnc3)n2)nc2ccccc21 [Example 41] | – | D | – | EC50 Phytophthora spp. (Phytophthora cactorum) (Phytophthora cactorum [2]): G
Cn1nnnc1-n1c(OCc2cccc(NCc3ccc(C#N)cc3)n2)nc2ccccc21 [Example 46] | – | – | 50 to 99% | EC50 Phytophthora spp. (Phytophthora cactorum) (Phytophthora cactorum [2]): G
CN(C)c1cccc(COc2nc3ccccc3n2-c2nnnn2C)n1 [Example 49, N,N-Dimethyl-6-(((1-(1-methyl-1H-tetrazol-5-yl)-1H-benzo[d]imidazol-2-yl)oxy)methyl)pyridin-2-amine] | H | D | – | –
COc1cccc(COc2nc3ccccc3n2-c2nnnn2C)n1 [Example 52] | H | D | – | –
CC(C)CCOc1cccc(COc2nc3ccccc3n2-c2nnnn2C)n1 [Example 53] | H | D | – | –
CSc1cccc(COc2nc3ccccc3n2-c2nnnn2C)n1 [Example 54] | H | D | – | –
Cn1nnnc1-n1c(OCc2ccc(N)cn2)nc2ccccc21 [Example 57] | H | D | – | –
Cn1nnnc1-n1c(OCc2cccc(S(C)(=O)=O)n2)nc2ccccc21 [Example 58, 1-(1-Methyl-1H-tetrazol-5-yl)-2-((6-(methylsulfonyl)pyridin-2-yl)methoxy)-1H-benzo[d]imidazole] | H | D | – | –
Cn1nnnc1-n1c(OCc2ccc3ccccc3n2)nc2c(Cl)cccc21 [Example 67] | – | – | > 99% | EC50 Phytophthora spp. (Phytophthora cactorum) (Phytophthora cactorum [2]): G
COCc1cccc(COc2nc3c(Cl)cccc3n2-c2nnnn2C)n1 [Example 72] | H | – | < 50% | –
